How the values were obtained:
Format in all cases: cell-based
[1] = test system: HECT E3 ligase; assay: effect of HECT E3 ligase inhibition or knockdown on stress granule disassembly; details: HECT E3 ligase inhibition or siRNA knockdown; FIG. 10, FIG. 11
Text: With this information provided by the interactome mapping, E3 ligase inhibitor Heclin was employed to determine any effects on HECT E3 ligase function relative to stress granule disassembly, as illustrated in FIG. 9.

[2] = test system: stress granules; assay: stress granule disassembly after NaAsO2 stress; details: HEK243T stably expressing HaloTag-G3BP1; 2 μM TAK243; stressed with 500 mM NaAsO2 for 30 minutes; FIG. 6
Protocol: (§1) A protein-transition metal complex composite of FIG. 2 was prepared as follows. Cells (HEK243T stably expressing HaloTag-G3BP1) were seeded and grown to 95% confluency prior to labeling. The cells were incubated in DMEM media containing 5 μM of the with iridium catalyst of FIG. 2 for one hour. During this period, the iridium catalyst passes through the cell membranes and conjugates with the HaloTag-G3BP1 protein. The cells were then incubated in fresh DMEM media for one hour to remove or minimize noise from any unbound iridium catalyst.
(§2) A first portion of the Ir-catalyst loaded cells were subsequently transferred to DMEM media pre-dosed with 2 μM TAK243 and incubated for another hour. The remaining second portion (control) was dosed with the same volume of DMSO. The cells were stressed with […] NaAsO2 in DMEM for 30 minutes. Following stressing, the media was replaced with fresh DMEM for cell recovery at the indicated time. During the stressing period, the cells were dosed with protein labeling agent of 500 μM biotin-diazirine in the media 30 minutes prior to the individual time point of photolabeling. During photolabeling, the cells were subjected to 10 minutes of 450 nm blue light irradiation. FIG. 4 illustrates the foregoing testing protocol.

[3] = test system: stress granule proteins; assay: ubiquitination of stress granule proteins during granule formation; details: HEK243T stably expressing HaloTag-G3BP1, 2 μM TAK243, FIG. 6
Protocol: as §1, §2
General proteomics preparation protocol was followed. 600 μg of total protein was loaded for streptavidin enrichment. […]

SMILES | stress granule disassembly [1] | granule disassembly [2] | protein ubiquitination [3]
CCc1ccc(C=CC(=O)Nc2ccc(C(C)=O)cc2)o1 [Heclin] | delays stress granule disassembly | – | –
NS(=O)(=O)OC[C@H]1C[C@@H](Nc2ccnc3cc(-c4cccc(SC(F)(F)F)c4)nn23)[C@H](O)[C@@H]1O [TAK243] | – | delayed | undermined or inhibited

— US20260194528A1, “PROXIMITY-BASED LABELING OF BIOMOLECULAR CONDENSATE MICROENVIRONMENTS” (THE TRUSTEES OF PRINCETON UNIVERSITY, priority 2022, published 2026)
